We go through 22 compounds from US9206191B2, “Indazoles for the treatment and prophylaxis of respiratory syncytial virus infection” (Hoffmann-La Roche Inc., priority 2012, dated 2015).

In this test the test system is RSV Long strain. The test can be described thus: Viral Cytopathic Effect (CPE) Assay. The class given is cell-based. The following applies: human respiratory syncytial virus, 144 h, cell viability after 6 days, Cell Counting kit-8. Background: Cytopathic effects are the visible damage that an infection or toxin causes in cultured cells.

The structures appear in SMILES notation.

By EC50 is commonly meant the midpoint of the concentration-response curve. On to `CS(=O)(=O)c1nn(Cc2nc3cc(Cl)ccc3n2[C@H]2CCN(CC(F)(F)F)C2)c2cnccc12` [Example 2-19, 1-({5-Chloro-1-[(3S)-1-(2,2,2-trifluoroethyl)pyrrolidin-3-yl]-1H-benzimidazol-2-yl}methyl)-3-(methylsulfonyl)-1H-pyrazolo[3,4-c]pyridine], for which a half-maximal response (EC50) required 1170 nM.

`CS(=O)(=O)c1nn(Cc2nc3cc(Cl)ccc3n2[C@@H]2CCN(CC(F)(F)F)C2)c2cnccc12` [Example 2-20, 1-({5-Chloro-1-[(3R)-1-(2,2,2-trifluoroethyl)pyrrolidin-3-yl]-1H-benzimidazol-2-yl}methyl)-3-(methylsulfonyl)-1H-pyrazolo[3,4-c]pyridine] gave an EC50 of 188 nM.

`CS(=O)(=O)c1nn(Cc2nc3cc(Cl)ccc3n2CCC2COC2)c2cnccc12` [Example 2-23, 1-({5-Chloro-1-[2-(oxetan-3-yl)ethyl]-1H-benzimidazol-2-yl}methyl)-3-(methylsulfonyl)-1H-pyrazolo[3,4-c]pyridine] had an EC50 of 6 nM.

`CS(=O)(=O)c1nn(Cc2nc3cc(Cl)ccc3n2C2CC3(COC3)C2)c2cnccc12` [Example 2-24, 1-{[5-Chloro-1-(2-oxaspiro[3.3]hept-6-yl)-1H-benzimidazol-2-yl]methyl}-3-(methylsulfonyl)-1H-pyrazolo[3,4-c]pyridine] yielded an EC50 of 8.66 nM.

`CC1(CCn2c(Cn3nc(S(C)(=O)=O)c4ccncc43)nc3cc(Cl)ccc32)COC1` [Example 2-25, 1-({5-Chloro-1-[2-(3-methyloxetan-3-yl)ethyl]-1H-benzimidazol-2-yl}methyl)-3-(methylsulfonyl)-1H-pyrazolo[3,4-c]pyridine] came in with an EC50 of 6.79 nM.

As for `CS(=O)(=O)c1nn(Cc2nc3cc(Cl)ccc3n2[C@H]2C[C@](C)(O)C2)c2cnccc12` [Example 2-26, trans-3-(5-Chloro-2-{[3-(methylsulfonyl)-1H-pyrazolo[3,4-c]pyridin-1-yl]methyl}-1H-benzimidazol-1-yl)-1-methylcyclobutanol], the EC50 is 7 nM.

`CS(=O)(=O)c1nn(Cc2nc3cc(Cl)ccc3n2CCCO)c2cnccc12` [Example 2-27, 3-(5-Chloro-2-{[3-(methylsulfonyl)-1H-pyrazolo[3,4-c]pyridin-1-yl]methyl}-1H-benzimidazol-1-yl)propan-1-ol]: the EC50 stood at 7.53 nM.

Take `CS(=O)(=O)c1nn(Cc2nc3cc(Cl)ccc3n2C2CCOC2)c2cnccc12` (stereo not shown) [Example 2-28, 1-{[5-Chloro-1-(tetrahydrofuran-3-yl)-1H-benzimidazol-2-yl]methyl}-3-(methylsulfonyl)-1H-pyrazolo[3,4-c]pyridine]: the EC50 amounted to 7.57 nM.

In turn, `CC(C)(O)CCn1c(Cn2nc(S(C)(=O)=O)c3ccncc32)nc2cc(Cl)ccc21` [Example 2-29, 4-(5-Chloro-2-{[3-(methylsulfonyl)-1H-pyrazolo[3,4-c]pyridin-1-yl]methyl}-1H-benzimidazol-1-yl)-2-methylbutan-2-ol] displayed an EC50 of 8.04 nM.

With `CS(=O)(=O)c1nn(Cc2nc3cc(Cl)ccc3n2CCCCO)c2cnccc12` [Example 2-30, 4-(5-Chloro-2-{[3-(methylsulfonyl)-1H-pyrazolo[3,4-c]pyridin-1-yl]methyl}-1H-benzimidazol-1-yl)butan-1-ol], the response was half-maximal at 4.81 nM (EC50).

As to `CS(=O)(=O)c1nn(Cc2nc3cc(Cl)ccc3n2CC2CCOC2)c2cnccc12` (stereo not shown) [Example 2-31, 1-{[5-Chloro-1-(tetrahydrofuran-3-ylmethyl)-1H-benzimidazol-2-yl]methyl}-3-(methylsulfonyl)-1H-pyrazolo[3,4-c]pyridine], a half-maximal response (EC50) required 4.34 nM.

In turn, `CS(=O)(=O)c1nn(Cc2nc3cc(Cl)ccc3n2[C@H]2C[C@H](O)C2)c2cnccc12` [Example 2-32, trans-3-(5-Chloro-2-{[3-(methylsulfonyl)-1H-pyrazolo[3,4-c]pyridin-1-yl]methyl}-1H-benzimidazol-1-yl)cyclobutanol] registered an EC50 of 3.32 nM.

Compound `CS(=O)(=O)c1nn(Cc2nc3cc(Cl)ccc3n2[C@H]2C[C@@](C)(O)C2)c2cnccc12` [Example 2-33, cis-3-(5-Chloro-2-{[3-(methylsulfonyl)-1H-pyrazolo[3,4-c]pyridin-1-yl]methyl}-1H-benzimidazol-1-yl)-1-methylcyclobutanol] had an EC50 of 9.85 nM.

Take `CS(=O)(=O)c1nn(Cc2nc3cc(Cl)ccc3n2CCC2(O)CC2)c2cnccc12` [Example 2-34, 1-[2-(5-Chloro-2-{[3-(methylsulfonyl)-1H-pyrazolo[3,4-c]pyridin-1-yl]methyl}-1H-benzimidazol-1-yl)ethyl]cyclopropanol]: it took 8.7 nM to reach a half-maximal effect (EC50).

Compound `CS(=O)(=O)c1nn(Cc2nc3cc(Cl)ccc3n2CCOCCO)c2cnccc12` [Example 2-35, 2-[2-(5-chloro-2-{[3-(methylsulfonyl)-1H-pyrazolo[3,4-c]pyridin-1-yl]methyl}-1H-benzimidazol-1-yl)ethoxy]ethanol] displayed an EC50 of 15 nM.

Regarding `CS(=O)(=O)c1nn(Cc2nc3cc(Cl)ccc3n2[C@H]2CC[C@@](C)(O)CC2)c2cnccc12` [Example 2-37, cis-4-(5-chloro-2-{[3-(methylsulfonyl)-1H-pyrazolo[3,4-c]pyridin-1-yl]methyl}-1H-benzimidazol-1-yl)-1-methylcyclohexanol], the EC50 was 6 nM.

`CC(C)(O)CCCn1c(Cn2nc(S(C)(=O)=O)c3ccncc32)nc2cc(Cl)ccc21` [Example 2-38, 5-(5-chloro-2-{[3-(methylsulfonyl)-1H-pyrazolo[3,4-c]pyridin-1-yl]methyl}-1H-benzimidazol-1-yl)-2-methylpentan-2-ol]: a half-maximal effect (EC50) was put at 8 nM.

`CC(C)(O)[C@H]1C[C@H](n2c(Cn3nc(S(C)(=O)=O)c4ccncc43)nc3cc(Cl)ccc32)C1` [Example 2-39, 2-[trans-3-(5-chloro-2-{[3-(methylsulfonyl)-1H-pyrazolo[3,4-c]pyridin-1-yl]methyl}-1H-benzimidazol-1-yl)cyclobutyl]propan-2-ol] yielded an EC50 of 2 nM.

In turn, `CS(=O)(=O)c1nn(Cc2nc3cc(Cl)ccc3n2[C@H]2C[C@H](C(=O)O)C2)c2cnccc12` [Example 2-41, trans-3-(5-chloro-2-{[3-(methylsulfonyl)-1H-pyrazolo[3,4-c]pyridin-1-yl]methyl}-1H-benzimidazol-1-yl)cyclobutanecarboxylic acid] came in with an EC50 of 7 nM.

In turn, `CS(=O)(=O)c1nn(Cc2nc3cc(Cl)ccc3n2CCC(O)C(F)(F)F)c2cnccc12` (stereo not shown) [Example 2-42, 4-(5-chloro-2-{[3-(methylsulfonyl)-1H-pyrazolo[3,4-c]pyridin-1-yl]methyl}-1H-benzimidazol-1-yl)-1,1,1-trifluorobutan-2-ol] showed a concentration for a half-maximal effect (EC50) of 1.6 nM.

Turning to `CS(=O)(=O)c1nn(Cc2nc3cc(Cl)ccc3n2CCC(O)C(F)F)c2cnccc12` (stereo not shown) [Example 2-44, 4-(5-chloro-2-{[3-(methylsulfonyl)-1H-pyrazolo[3,4-c]pyridin-1-yl]methyl}-1H-benzimidazol-1-yl)-1,1-difluorobutan-2-ol], the EC50 was determined as 3.3 nM.

Consider `CS(=O)(=O)c1nn(Cc2nc3cc(Cl)ccc3n2C2C[C@@H](O)[C@H](O)C2)c2cnccc12` [Example 2-45, trans-4-(5-chloro-2-{[3-(methylsulfonyl)-1H-pyrazolo[3,4-c]pyridin-1-yl]methyl}-1H-benzimidazol-1-yl)cyclopentane-1,2-diol], for which the EC50 came out at 6.1 nM.
